We go through 5 compounds from patent US20200404914A1, “HERBICIDALLY ACTIVE BICYCLIC BENZAMIDES” (Bayer Aktiengesellschaft, priority 2018, published 2020).

The test system of experiment [1] is monocotyledonous and dicotyledonous weed plants. The experiment can be described thus: Pre-emergence herbicidal action (greenhouse pot test, visual scoring after about 3 weeks). The experiment is classed as in vivo. The note with it: for Herbicidal activity AMARE (Amaranthus retroflexus) / Herbicidal activity VIOTR (Viola tricolor) / Herbicidal activity ABUTH (Abutilon theophrasti) / Herbicidal activity AVEFA (Avena fatua) / Herbicidal activity CYPES (Cyperus esculentus) / Herbicidal activity ECHCG (Echinochloa crus-galli) / Herbicidal activity MATIN (Matricaria inodora) / Herbicidal activity PHBPU (Ipomoea purpurea) / Herbicidal activity POLCO (Polygonum convolvulus) / Herbicidal activity SETVI (Setaria viridis) / Herbicidal activity STEME (Stellaria media) / Herbicidal activity VERPE (Veronica persica): pre-emergence (PE). The text has this: In the tables below, the following abbreviations are used: Undesired Plants/Weeds: [table] 1. Pre-Emergence Herbicidal Action and Crop Plant Compatibility Seeds of monocotyledonous and dicotyledonous weed plants and crop plants are placed in plastic or organic planting pots and covered with soil. The compounds of the invention, formulated in the form of wettable powders (WP) or as emulsion concentrates (EC), are then applied onto the surface of the covering soil as aqueous suspension or emulsion with addition of 0.5% additive at a water application rate of […] (converted). After the treatment, the pots are placed in a greenhouse and kept under good growth conditions for the trial plants. After about 3 weeks, the effect of the preparations is scored visually in comparison with untreated controls as percentages. The tables below show the herbicidal activity of numerous compounds according to the invention against important harmful plants. For example, 100% activity=the plants have died, 0% activity=like control plants.

The test system of experiment [2] is monocotyledonous and dicotyledonous weeds. The experiment can be described thus: Post-emergence herbicidal action (greenhouse pot test, visual rating after about 3 weeks). The experiment is classed as in vivo. The note with it: for Herbicidal activity ABUTH (Abutilon theophrasti) / Herbicidal activity ECHCG (Echinochloa crus-galli) / Herbicidal activity AMARE (Amaranthus retroflexus) / Herbicidal activity MATIN (Matricaria inodora) / Herbicidal activity SETVI (Setaria viridis) / Herbicidal activity STEME (Stellaria media) / Herbicidal activity VERPE (Veronica persica) / Herbicidal activity VIOTR (Viola tricolor): post-emergence (PO). The protocol: In the tables below, the following abbreviations are used: Undesired Plants/Weeds: [table] 2. Post-Emergence Herbicidal Action and Crop Plant Compatibility Seeds of monocotyledonous and dicotyledonous weeds and crop plants are placed in sandy loam in plastic or organic planting pots, covered with soil and cultivated in a greenhouse under controlled growth conditions. 2 to 3 weeks after sowing, the test plants are treated at the one-leaf stage. The compounds of the invention, formulated in the form of wettable powders (WP) or as emulsion concentrates (EC), are then sprayed onto the green parts of the plants as aqueous suspension or emulsion with addition of 0.5% additive at a water application rate of […] (converted). After the test plants had been kept in the greenhouse under optimum growth conditions for about 3 weeks, the activity of the preparations is rated visually in comparison to untreated controls. The tables below show the herbicidal activity of numerous compounds according to the invention against important harmful plants. For example, 100% activity=the plants have died, 0% activity=like control plants.

Where [3] appears, read: application rate 80, about 3 weeks.
Where [4] appears, read: application rate 20, about 3 weeks.
Where [5] appears, read: application rate 320, about 3 weeks.
Setting [6] is: pre-emergence comparative experiment, dosage 320 g/ha.
Where [7] appears, read: post-emergence comparative experiment, dosage 80 g/ha.

As for `Cn1nnnc1NC(=O)c1ccc(C(F)(F)F)c2c1[S+]([O-])CCCS2` (stereo not drawn) [2-76], in experiment [1] (setting [3]), the “Herbicidal activity AMARE (Amaranthus retroflexus)” value (“Herbicidal activity AMARE” below) is 90% and the “Herbicidal activity VIOTR (Viola tricolor)” value (shortened to “Herbicidal activity VIOTR”) was 90%. In addition, in experiment [2] (setting [4]), the “Herbicidal activity ABUTH (Abutilon theophrasti)” value (“Herbicidal activity ABUTH” for short) worked out at 80% and the “Herbicidal activity ECHCG (Echinochloa crus-galli)” value (“Herbicidal activity ECHCG” below) stood at 90%.

Turning to `Cn1nnnc1NC(=O)c1ccc(C(F)(F)F)c2c1OCCC[S+]2[O-]` (stereo not drawn) [2-16], in experiment [1] (setting [5]), the “Herbicidal activity ABUTH” value stood at 100%, the “Herbicidal activity AMARE” value is reported as 100%, the “Herbicidal activity AVEFA (Avena fatua)” value was 80% and the “Herbicidal activity CYPES (Cyperus esculentus)” value (shortened to “Herbicidal activity CYPES”) amounted to 100%. In addition, in experiment [1] (setting [5]), the “Herbicidal activity ECHCG” value was 100%, the “Herbicidal activity MATIN (Matricaria inodora)” value (“Herbicidal activity MATIN” for short) is 100%, the “Herbicidal activity PHBPU (Ipomoea purpurea)” value (“Herbicidal activity PHBPU” below) was 80% and the “Herbicidal activity POLCO (Polygonum convolvulus)” value (shortened to “Herbicidal activity POLCO”) is given as 80%. In addition, in experiment [1] (setting [5]), the “Herbicidal activity SETVI (Setaria viridis)” value (shortened to “Herbicidal activity SETVI”) was 100%, the “Herbicidal activity STEME (Stellaria media)” value (from here on “Herbicidal activity STEME”) was found to be 100%, the “Herbicidal activity VERPE (Veronica persica)” value (from here on “Herbicidal activity VERPE”) was found to be 100% and the “Herbicidal activity VIOTR” value amounted to 100%. Further, in experiment [2] (setting [3]), the “Herbicidal activity ABUTH” value amounted to 100%, the “Herbicidal activity AMARE” value is given as 100%, the “Herbicidal activity ECHCG” value was determined as 100% and the “Herbicidal activity MATIN” value is on record as 100%. Further, in experiment [2] (setting [3]), the “Herbicidal activity SETVI” value was 90%, the “Herbicidal activity STEME” value is 100%, the “Herbicidal activity VERPE” value amounted to 90% and the “Herbicidal activity VIOTR” value worked out at 100%.

Consider `Cn1nnnc1NC(=O)c1ccc(C(F)(F)F)c2c1OCCCS2(=O)=O` [2-19], for which, in experiment [1] (setting [5]), the “Herbicidal activity ABUTH” value worked out at 100%, the “Herbicidal activity AMARE” value stood at 100%, the “Herbicidal activity AVEFA (Avena fatua)” value came to 80% and the “Herbicidal activity CYPES” value amounted to 100%. For the same compound, in experiment [1] (setting [5]), the “Herbicidal activity ECHCG” value is 100%, the “Herbicidal activity MATIN” value amounted to 100%, the “Herbicidal activity PHBPU” value is given as 100% and the “Herbicidal activity POLCO” value is listed as 90%. Besides, in experiment [1] (setting [5]), the “Herbicidal activity SETVI” value was 100%, the “Herbicidal activity STEME” value worked out at 100%, the “Herbicidal activity VERPE” value is reported as 100% and the “Herbicidal activity VIOTR” value is 100%. Besides, in experiment [2] (setting [3]), the “Herbicidal activity ABUTH” value is on record as 100%, the “Herbicidal activity AMARE” value was 100%, the “Herbicidal activity ECHCG” value amounted to 100% and the “Herbicidal activity MATIN” value amounted to 90%. In experiment [2] (setting [3]), the “Herbicidal activity SETVI” value is given as 90%, the “Herbicidal activity STEME” value is on record as 100%, the “Herbicidal activity VERPE” value was 100% and the “Herbicidal activity VIOTR” value was found to be 100%.

Consider `Cn1nnnc1NC(=O)c1ccc(C(F)(F)F)c2c1OCCCS2` [2-13, 6-(trifluoromethyl)-3,4-dihydro-2H-1,5-benzoxathiepine-N-(1-methyltetrazol-5-yl)-8-carboxamide], for which, in experiment [1] (setting [5]), the “Herbicidal activity ABUTH” value is reported as 100%, the “Herbicidal activity AMARE” value was 100%, the “Herbicidal activity AVEFA (Avena fatua)” value came out at 100% and the “Herbicidal activity CYPES” value was 90%. Further, in experiment [1] (setting [5]), the “Herbicidal activity ECHCG” value was 100%, the “Herbicidal activity MATIN” value amounted to 100%, the “Herbicidal activity PHBPU” value stood at 100% and the “Herbicidal activity POLCO” value was found to be 100%. Besides, in experiment [1] (setting [5]), the “Herbicidal activity SETVI” value worked out at 100%, the “Herbicidal activity STEME” value is recorded as 100%, the “Herbicidal activity VERPE” value is recorded as 100% and the “Herbicidal activity VIOTR” value is 100%. Also, in experiment [1] (setting [6]), the “Herbicidal action against ABUTH (Abutilon theophrasti)” value is recorded as 100%, the “Herbicidal action against ALOMY (Alopecurus myosuroides)” value was determined as 100%, the “Herbicidal action against AVEFA (Avena fatua)” value was determined as 100% and the Herbicidal action against MATIN (Matricaria inodora) was 100%. In experiment [1] (setting [6]), the “Herbicidal action against SETVI (Setaria viridis)” value was 100%. In addition, the “herbicidal activity compared to that of compound No. A-117” value in experiment [1] (pre-emergence, comparative experiment, numerous harmful plants) was “superiority of the compound according to the invention was demonstrated clearly”. In addition, in experiment [2] (setting [3]), the “Herbicidal activity ABUTH” value turned out to be 100%, the “Herbicidal activity AMARE” value is 100%, the “Herbicidal activity ECHCG” value turned out to be 100% and the “Herbicidal activity MATIN” value worked out at 80%. In experiment [2] (setting [3]), the “Herbicidal activity SETVI” value was found to be 100%, the “Herbicidal activity STEME” value stood at 100%, the “Herbicidal activity VERPE” value was 100% and the “Herbicidal activity VIOTR” value is 100%. Further, in experiment [2] (setting [7]), the “Herbicidal action against ABUTH (Abutilon theophrasti)” value is 100%, the “Herbicidal action against ALOMY (Alopecurus myosuroides)” value came out at 90%, the Herbicidal action against AVEFA (Avena fatua) is 100% and the “Herbicidal action against PHPBU” value is given as 90%. Further, the “Herbicidal action against POLCO (Polygonum convolvulus)” value in experiment [2] (setting [7]) is given as 80%. Besides, the “herbicidal activity compared to that of compound No. A-117” value in experiment [2] (post-emergence, comparative experiment, numerous harmful plants) is “superiority of the compound according to the invention was demonstrated clearly”.

Consider `Cn1nnnc1NC(=O)c1ccc(C(F)(F)F)c2c1SCCCS2` [2-5], for which, in experiment [1] (setting [3]), the “Herbicidal activity ABUTH” value amounted to 100%, the “Herbicidal activity AMARE” value turned out to be 100%, the “Herbicidal activity ECHCG” value stood at 100% and the “Herbicidal activity MATIN” value is recorded as 100%. Further, in experiment [1] (setting [3]), the “Herbicidal activity STEME” value amounted to 100%, the “Herbicidal activity VERPE” value is listed as 100% and the “Herbicidal activity VIOTR” value is given as 100%. Moreover, in experiment [2] (setting [4]), the “Herbicidal activity ABUTH” value is given as 90%, the “Herbicidal activity AMARE” value turned out to be 90%, the “Herbicidal activity ECHCG” value is 90% and the “Herbicidal activity VIOTR” value is reported as 80%.
